{"source": "patent US20070135395A1", "about": "“Novel method for the preparation of intermediates useful for the synthesis fo vitamin d analogues” (Leo Pharma A/S, priority 2004, published 2007)", "origin": "cited, not measured here", "test_system": "epidermal keratinocytes", "conditions": "cited: Castelijins et al., Acta Derm. Venereol. 79, 11, 1999", "data": [{"smiles": "C=C1/C(=C\\C=C2/CCC[C@]3(C)[C@@H]([C@H](C)/C=C/[C@@H](O)C4CC4)CC[C@@H]23)C[C@@H](O)C[C@@H]1O", "note": "[Calcipotriol, (5Z, 7E, 22E, 24S)-24-cyclopropyl-9,10-secochola-5,7,10(19),22-tetraene-1α-3β-24-triol]", "values": [{"measurement": "activity in inhibiting undesirable proliferation of epidermal keratinocytes", "result": "strong activity"}]}]}
